According to ChEMBL document CHEMBL3804780, “Protective effect of novel substituted nicotine hydrazide analogues against hypoxic brain injury in neonatal rats via inhibition of caspase” (Bioorg Med Chem Lett, 2016):
Active and inactive are the calls of the source. The rule behind the calls is not given here.

Assays:
Caspase-7 = molecular target: T1, Caspase-7 (Homo sapiens, UniProt P55210); experiment: Inhibition of His-tagged human recombinant caspase 7 expressed in Escherichia coli using acetyl-Asp-Glu-Val-Asp-7- amido-4-methylcoumarin (Ac-DEVD-AMC) as substrate by fluorimetric assay
T1 sequence (P55210 whole entry): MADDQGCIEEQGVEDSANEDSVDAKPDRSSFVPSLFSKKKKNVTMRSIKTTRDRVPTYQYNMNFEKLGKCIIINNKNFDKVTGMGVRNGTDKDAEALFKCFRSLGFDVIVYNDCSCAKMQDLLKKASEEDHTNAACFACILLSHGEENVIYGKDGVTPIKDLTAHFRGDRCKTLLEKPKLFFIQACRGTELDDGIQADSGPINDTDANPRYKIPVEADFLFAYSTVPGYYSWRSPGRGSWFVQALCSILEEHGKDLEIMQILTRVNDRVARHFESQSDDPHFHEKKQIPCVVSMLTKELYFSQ

Caspase-3 = molecular target: T2, Caspase-3 (Homo sapiens, UniProt P42574); experiment: Inhibition of His-tagged human recombinant caspase 3 expressed in Escherichia coli using acetyl-Asp-Glu-Val-Asp-7- amido-4-methylcoumarin (Ac-DEVD-AMC) as substrate by fluorimetric assay
T2 sequence (P42574 whole entry): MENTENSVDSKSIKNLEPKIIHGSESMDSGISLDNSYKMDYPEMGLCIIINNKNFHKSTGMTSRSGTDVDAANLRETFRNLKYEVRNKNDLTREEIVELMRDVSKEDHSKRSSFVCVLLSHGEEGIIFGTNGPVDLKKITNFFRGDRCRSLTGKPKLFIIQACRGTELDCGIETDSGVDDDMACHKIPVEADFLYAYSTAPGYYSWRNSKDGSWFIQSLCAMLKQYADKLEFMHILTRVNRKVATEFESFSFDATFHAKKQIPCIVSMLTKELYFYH

Rattus norvegicus [1] = experiment: Neuroprotective activity in hypoxic-ischemic Sprague-Dawley rat brain assessed as regular shape of nucleus at 30 mg/kg, ip administered 15 mins prior to examination measured after 48 hrs by transmission electron microscopic analysis; assay type: functional, organism-based
Rattus norvegicus [2] = experiment: Neuroprotective activity in hypoxic-ischemic ip dosed neonatal Sprague-Dawley rat brain assessed as increase in CAT levels administered 15 mins prior to examination measured after 48 hrs by microplate reader based method; assay type: functional, organism-based
Rattus norvegicus [3] = experiment: Neuroprotective activity in hypoxic-ischemic neonatal Sprague-Dawley rat brain assessed as reduction in interstitial edema at 30 mg/kg, ip administered 15 mins prior to examination measured after 48 hrs by hematoxylin/eosin staining based microscopic analysis; assay type: functional, organism-based
Rattus norvegicus [4] = experiment: Neuroprotective activity in hypoxic-ischemic ip dosed neonatal Sprague-Dawley rat brain assessed as decrease in MDA levels administered 15 mins prior to examination measured after 48 hrs by thiobarbituric acid method; assay type: functional, organism-based
Rattus norvegicus [5] = experiment: Neuroprotective activity in hypoxic-ischemic neonatal Sprague-Dawley rat brain assessed as distribution of neurons in cortex at 30 mg/kg, ip administered 15 mins prior to examination measured after 48 hrs by hematoxylin/eosin staining based microscopic analysis; assay type: functional, organism-based
Rattus norvegicus [6] = experiment: Neuroprotective activity in hypoxic-ischemic ip dosed neonatal Sprague-Dawley rat brain assessed as increase in T-AOC levels administered 15 mins prior to examination measured after 48 hrs by microplate reader based method; assay type: functional, organism-based
Rattus norvegicus [7] = experiment: Neuroprotective activity in hypoxic-ischemia-induced neonatal Sprague-Dawley rat brain assessed as reduction brain infarction at 10 mg/kg, ip administered 15 mins prior to examination by microscopic analysis; assay type: functional, organism-based
Rattus norvegicus [8] = experiment: Neuroprotective activity in hypoxic-ischemia-induced neonatal Sprague-Dawley rat brain assessed as reduction brain infarction at 20 mg/kg, ip administered 15 mins prior to examination by microscopic analysis; assay type: functional, organism-based
Rattus norvegicus [9] = experiment: Neuroprotective activity in hypoxic-ischemic-induced neonatal Sprague-Dawley rat brain assessed as reduction brain infarction at 30 mg/kg, ip administered 15 mins prior to examination by microscopic analysis; assay type: functional, organism-based
Rattus norvegicus [10] = experiment: Neuroprotective activity in hypoxic-ischemic Sprague-Dawley rat brain assessed as reduction in disruption of cell organelles at 30 mg/kg, ip administered 15 mins prior to examination measured after 48 hrs by transmission electron microscopic analysis; assay type: functional, organism-based
Rattus norvegicus [11] = experiment: Neuroprotective activity in hypoxic-ischemic ip dosed neonatal Sprague-Dawley rat brain assessed as increase in GSH-Px levels administered 15 mins prior to examination measured after 48 hrs by microplate reader based method; assay type: functional, organism-based
Rattus norvegicus [12] = experiment: Neuroprotective activity in hypoxic-ischemic ip dosed neonatal Sprague-Dawley rat brain assessed as increase in SOD levels administered 15 mins prior to examination measured after 48 hrs by microplate reader based method; assay type: functional, organism-based
Rattus norvegicus [13] = species on record: Rattus norvegicus; details: Sprague-Dawley, Brain, 30 mg/kg
Description: Neuroprotective activity in hypoxic-ischemic neonatal Sprague-Dawley rat brain assessed as inhibition of elevated caspase 3 expression levels at 30 mg/kg, ip administered 15 mins prior to examination measured after 48 hrs by Western blot analysis

| SMILES | IC50 (Caspase-7) | IC50 (Caspase-3) | further results |
| --- | --- | --- | --- |
| COc1ccc(-c2ccc(C(=O)N/N=C3\C(=O)N(C)c4ccccc43)c(C)n2)cc1OC | > 200 µM | 599 µM | – |
| Cc1nc(-c2cccc(Cl)c2)ccc1C(=O)N/N=C1\C(=O)N(C)c2ccccc21 | > 200 µM | – | – |
| CC(=O)N[C@@H](CC(=O)O)C(=O)N[C@@H](CCC(=O)O)C(=O)N[C@H](C(=O)N[C@H](C=O)CC(=O)O)C(C)C | 0.0604 µM | – | – |
| COc1ccccc1-c1ccc(C(=O)N/N=C2\C(=O)N(C)c3ccccc32)c(C)n1 | > 200 µM | 552 µM | – |
| COc1cccc(-c2ccc(C(=O)N/N=C3\C(=O)N(C)c4ccccc43)c(C)n2)c1 | > 200 µM | 547 µM | – |
| Cc1nc(-c2ccccc2)ccc1C(=O)N/N=C1\C(=O)N(C)c2ccccc21 | – | 456 µM | – |
| COc1ccc(-c2ccc(C(=O)N/N=C3\C(=O)N(C)c4ccccc43)c(C)n2)cc1 | > 200 µM | 487 µM | – |
| COc1cc(-c2ccc(C(=O)N/N=C3\C(=O)N(C)c4ccccc43)c(C)n2)cc(OC)c1OC | – | 674 µM | – |
| Cc1nc(-c2ccc(F)cc2)ccc1C(=O)N/N=C1\C(=O)N(C)c2ccccc21 | > 200 µM | – | Activity (Rattus norvegicus [1]): Active; Activity (Rattus norvegicus [2]): Dose-dependent effect; Activity (Rattus norvegicus [3]): Active; Activity (Rattus norvegicus [4]): Active; Activity (Rattus norvegicus [5]): Active; Activity (Rattus norvegicus [6]): Dose-dependent effect; Activity (Rattus norvegicus [7]): Active; Activity (Rattus norvegicus [8]): Active; Activity (Rattus norvegicus [9]): Active; Activity (Rattus norvegicus [10]): Active; Activity (Rattus norvegicus [11]): Dose-dependent effect; Activity (Rattus norvegicus [12]): Dose-dependent effect; inhibition (Rattus norvegicus [13]): Active |

The next lines start with results.

| IC50 (Caspase-7) | IC50 (Caspase-3) | SMILES | further results |
| --- | --- | --- | --- |
| – | 375 µM | Cc1ccc(-c2ccc(C(=O)N/N=C3\C(=O)N(C)c4ccccc43)c(C)n2)cc1 | – |
| – | 351 µM | Cc1ccccc1-c1ccc(C(=O)N/N=C2\C(=O)N(C)c3ccccc32)c(C)n1 | – |
| – | 310 µM | Cc1cccc(-c2ccc(C(=O)N/N=C3\C(=O)N(C)c4ccccc43)c(C)n2)c1 | – |
| – | 202 µM | Cc1nc(-c2ccc([N+](=O)[O-])cc2)ccc1C(=O)N/N=C1\C(=O)N(C)c2ccccc21 | – |
| > 200 µM | 297 µM | Cc1nc(-c2ccccc2[N+](=O)[O-])ccc1C(=O)N/N=C1\C(=O)N(C)c2ccccc21 | – |
| – | 132 µM | Cc1nc(-c2ccccc2Br)ccc1C(=O)N/N=C1\C(=O)N(C)c2ccccc21 | – |
| – | 278 µM | Cc1nc(-c2cccc([N+](=O)[O-])c2)ccc1C(=O)N/N=C1\C(=O)N(C)c2ccccc21 | – |
| – | 130 µM | Cc1nc(-c2cccc(Br)c2)ccc1C(=O)N/N=C1\C(=O)N(C)c2ccccc21 | – |
| – | 122 µM | Cc1nc(-c2ccc(Br)cc2)ccc1C(=O)N/N=C1\C(=O)N(C)c2ccccc21 | – |
